# From patent publication US20220111034A1, “VIRUS COMPOSITIONS” (priority 2019, published 2022)
# Key:
# [1] = tested on: Lec2, Lec2-JAM-A, CHO and CHO-JAM-A cells; experiment: Infection of in vitro cultured cells by reovirus (Example 6); assay type: cell-based; conditions: co-administered with the virus; for effect on infectivity of T3SA+ towards Lec2-JAM-A and CHO-JAM-A: compared to T3SA+ without glycan
# Protocol: T3SA+ and T3SA− reovirus stocks are prepared and purified virions obtained as set forth in Example 1. Lec2, Lec2-JAM-A, CHO and CHO-JAM-A cells are prepared and cultured as set forth in Example 1.
# The cells are infected with the reovirus at a suitable multiplicity of infection (MOI) in batch suspensions or in monolayers and infectivity is analysed by an appropriate assay, such as quantification of viral protein expression in infected cells or a plaque assay.
# [2] = tested on: JAM-A on Lec2-JAM-A cells; experiment: FD-based AFM with virus-functionalized tip on living Lec2-JAM-A cells, with glycan addition; assay type: cell-based, human; conditions: for T3SA+ adhesion events in the high force range (400 to 500 pN) / T3SA+ binding frequency after glycan injection / T3SA+ binding frequency before glycan injection: Lec2-JAM-A cells; for T3SA+ adhesion events in the high force range (400 to 500 pN): FIG. 8; for T3SA+ binding frequency after glycan injection / T3SA+ binding frequency before glycan injection: FIG. 9; for T3SA+ binding frequency before glycan injection: baseline of the same experiment
# Protocol: Engineering and characterization of cell lines expressing JAM-A. Monolayers of CHO (ATCC, #CCL-61) and Lec2 (ATCC, #CRL-1736) cells were transduced with lentiviruses encoding a puromycin resistance gene and human JAM-A or a puromycin resistance gene alone. Transduced cells were selected for puromycin resistance by passaging twice in medium containing 20 μg ml^−1 puromycin. The concentration of puromycin used was the minimal concentration that yielded complete death of non-transduced CHO and Lec2 cells. Following selection for puromycin resistance, cells were further selected for cell surface expression of JAM-A using fluorescence-activated cell sorting (FACS). Cell-surface expression of JAM-A was detected using the monoclonal antibody, J10.4 (Liu et al. Human junction adhesion molecule regulates tight junction resealing in epithelia. J. Cell Sci. 2000, vol. 113, 2363-2374), and a fraction of cells with high JAM-A expression was collected and propagated using puromycin selection. In the ensuing Examples, cells transduced and selected for puromycin resistance alone will be referred to as CHO and Lec2 and those selected for puromycin resistance and JAM-A expression will be referred to as CHO-JAM-A and Lec2-JAM-A, respectively.
# Correlative images were acquired on an AFM (Bioscope Catalyst and Bioscope Resolve, Bruker) operated in the PeakForce QNM mode (Nanoscope software v9.2) to conduct FD-based AFM and coupled to an inverted epifluorescence microscope (Zeiss Observer Z.1) as described (Newton et al. 2017, supra; Knoops et al. Specific Interactions Measured by AFM on Living Cells between Peroxiredoxin-5 and TLR4: Relevance for Mechanisms of Innate Immunity. Cell chemical biology 2018, vol. 25, 550-559, e553). A 40× oil objective (NA=0.95) was used. The AFM was equipped with a 150 μm piezoelectric scanner and a cell culture chamber allowing to control the temperature, the humidity and the CO2 concentration as described (Alsteens et al. 2017, supra). Overview images of cell surfaces (20-30 μm^2) were recorded at imaging forces of ˜500 pN using PFQNM-LC probes (Bruker) having tip lengths of 17 μm, tip radii of 65 nm, and opening angles of 15°. All fluorescence microscopy and FD-based AFM imaging experiments were conducted under cell culture conditions using the combined AFM and fluorescence microscopy chamber (FIG. 1a) at 37° C. in either Mem a, nucleosides or Ham's F12 culture medium, depending on the cell type. A gas mixture of synthetic air with 5% CO2 at 95% relative humidity using a gas humidifier membrane (PermSelect silicone) was infused at 0.1 L min^−1 into the microscopy chamber. The humidity was controlled using a humidity sensor (Sensirion). Cantilevers were first calibrated using the thermal noise method (Huffer & Bechhoefer. Calibration of atomic-force microscope tips. Review of Scientific Instruments 1993, vol. 64, 1868-1873), yielding values ranging from 0.095 to 0.135 N m^−1 for PFQNM-LC probes. The AFM tip was oscillated in a sinusoidal fashion at 0.25 kHz with a 750 nm amplitude in the PeakForce Tapping mode. The sample was scanned using a frequency of 0.125 Hz and 256 pixels per line (256 lines). AFM images and FD curves were analyzed using the Nanoscope analysis software (v1.7, Bruker), Origin, and ImageJ (v1.52e). Individual FD curves detecting unbinding events between the virus and cell surface were analyzed using the Nanoscope analysis and Origin software. The baseline of the retraction curve was corrected using a linear fit on the last 30% of the retraction curve. Using the force-time curve, the loading rate (slope) of each rupture event was determined (FIG. 1c). Optical images were analyzed using Zen Blue software (Zeiss) (Alsteens et al. 2017, Newton et al. 2017, Delguste et al. 2018a, Delguste et al. 2018b, all supra).
# The live cell experiments were conducted in the same manner as described above by scanning a suitable field of cells, followed by adding 1 mM of the respective glycan to the culture medium. […]
Compound,effect on infectivity of T3SA+ towards Lec2-JAM-A and CHO-JAM-A [1],T3SA+ adhesion events in the high force range (400 to 500 pN) ([2]; 1 mM glycan),T3SA+ binding frequency after glycan injection ([2]; 1 mM glycan),T3SA+ binding frequency before glycan injection [2],effect on infectivity of T3SA− towards Lec2-JAM-A or CHO-JAM-A [1],"T3SA+ adhesion events in the high force range after neuraminidase treatment ([2]; NA-treated cells, 1 mM glycan, FIG. 17)","increase in T3SA+ binding after glycan injection on neuraminidase-treated cells ([2]; neuraminidase 40 mUnit/mL for 1 h, then 1 mM glycan)"
"CC(=O)N[C@H]1[C@H](O[C@H]2[C@@H](O)[C@@H](CO)O[C@@H](O[C@H]3[C@H](O)[C@@H](O)C(O)O[C@@H]3CO)[C@@H]2O)O[C@H](CO)[C@@H](O[C@@H]2O[C@H](CO)[C@H](O)[C@H](O)[C@H]2O)[C@@H]1O (mixture of isomers) [LNnT, lacto-N-neotetraose, reference compound]",does not affect infectivity,no significant change,3.9%,3.8%,–,–,–
"CC(=O)N[C@H]1[C@H]([C@H](O)[C@H](O)CO)OC(O)(C(=O)O)C[C@@H]1O (stereo partly shown) [Neu5Ac, N-acetylneuraminic acid]",significantly increase infectivity,more adhesion events in the high force range,4.9%,3.9%,do not affect infectivity,more adhesion events in the high force range,~20%
sialyl-lacto-N-tetraose a [LSTa],significantly increase infectivity,more adhesion events in the high force range,4.8%,3.8%,do not affect infectivity,–,–
